Measured values: patent US20190365675A1, “COMPOSITIONS FOR THE PREVENTION AND/OR TREATMENT OF ALCOHOL USE DISORDERS” (SERVICIO ANDALUZ DE SALUD, priority 2016, published 2019)

Legend:
Assay type in all cases: in vivo, Wistar rats
[1] = test system: MyD88; assay: MyD88 protein expression in frontal cortex after ethanol intoxication; settings: 2-4 h after last ethanol, OEA pre-treatment
Protocol: The animals were treated with intragastric (i.g.) ethanol 3 times a day using an i.g. cannula (16G needle, Fisher Scientific, Waltham, Mass., USA), following a protocol based on a slightly modified standard 4-day alcohol intoxication pattern (Bernier et al., 2002a, b) (FIG. 1A). The ethanol doses were administered every 8 h for a total time of 4 days. The rats treated with ethanol received an initial loading dose of 5 g/kg of ethanol in a 30% solution (w/v) and then a maximum maintenance dose of 3 g/kg, which were determined based on blood ethanol levels (BEL). This repeated standard alcohol intoxication paradigm kept BEL intoxication relatively constant in a range of sedation/ataxia (190 to 430 mg/dl, Table 3), according to the 6-point alcohol intoxication behavior scale (Majchrowicz, 1975). The mean dose of ethanol/rat/day (days 1-4) was 7.06 g/kg, similar to other studies (Obernier et al., 2002a, b). OEA (5 mg/kg, i.p., except initial dose of 10 mg/kg i.p.; synthesized as described in Giuffrida et al., 2000) was dissolved in the vehicle (5% Tween-80 in saline solution) and injected 10 minutes before each of the administrations of ethanol by an intragastric gavage. […] The autoradiograph was quantified by densitometry (NIH ImageJ® software, National Biosciences, Lincoln, Nebr. USA) and expressed as optical density (OD). […]

[2] = test system: TNF-α; assay: TNF-α mRNA and protein (ELISA) in frontal cortex and plasma after ethanol intoxication; settings: OEA pre-treatment
Protocol: (§1) The animals were treated with intragastric (i.g.) ethanol 3 times a day using an i.g. cannula (16G needle, Fisher Scientific, Waltham, Mass., USA), following a protocol based on a slightly modified standard 4-day alcohol intoxication pattern (Bernier et al., 2002a, b) (FIG. 1A). The ethanol doses were administered every 8 h for a total time of 4 days. The rats treated with ethanol received an initial loading dose of 5 g/kg of ethanol in a 30% solution (w/v) and then a maximum maintenance dose of 3 g/kg, which were determined based on blood ethanol levels (BEL). This repeated standard alcohol intoxication paradigm kept BEL intoxication relatively constant in a range of sedation/ataxia (190 to 430 mg/dl, Table 3), according to the 6-point alcohol intoxication behavior scale (Majchrowicz, 1975). The mean dose of ethanol/rat/day (days 1-4) was 7.06 g/kg, similar to other studies (Obernier et al., 2002a, b). OEA (5 mg/kg, i.p., except initial dose of 10 mg/kg i.p.; synthesized as described in Giuffrida et al., 2000) was dissolved in the vehicle (5% Tween-80 in saline solution) and injected 10 minutes before each of the administrations of ethanol by an intragastric gavage. The anti-inflammatory activity of OEA at 10 mg/kg per intraperitoneal route in the frontal cortex before the injection of LPS (Sayd et al., 2014) was previously referred to. In this study, OEA is repeatedly injected as a pre-treatment before each administration of ethanol. […] The quantitative changes in mRNA levels were estimated by means of RT-PCR, carried out in the presence of the SYBR green primer using a 20-L reaction in a Rotor-Gene (Corbett Research®, Mortlake, NSW, Australia). […] The levels of soluble HMGB1, TNF-α, IL-1β and MCP-1 were determined by means of a commercially available enzyme-linked immunosorbent assay kit (ELISA) (Elabscience Biotechnology Co., Ltd., China, for HMGB-1; RayBiotech®, GA, USA, for TNF-α, IL-1β, and MCP-1). The nuclear/cytosol HMGB1 fraction was determined by means of Western blot analysis.

[3] = test system: IL-1β; assay: IL-1β mRNA and protein (ELISA) in frontal cortex and plasma after ethanol intoxication; settings: OEA pre-treatment
Protocol: as §1

## CCCCCCCC/C=C\CCCCCCCC(=O)NCCO [OEA, oleoylethanolamide]
[1]
  Ethanol-induced increase in expression of MyD88 protein: inhibited
[2]; frontal cortex, ELISA
  Ethanol-induced increase in TNF-α protein levels: not prevented
[2]; frontal cortex
  Ethanol-induced increase in TNF-α mRNA: did not prevent
[2]; plasma, ELISA
  Increase in plasma TNF-α after ethanol intoxication: partially prevented
[3]; frontal cortex, ELISA
  Ethanol-induced increase in IL-1β protein levels: prevented
[3]; frontal cortex
  Ethanol-induced increase in IL-1β mRNA: did not prevent
[3]; plasma, ELISA
  Ethanol-induced increase in IL-1β plasma levels: prevented
